Source: patent publication US9040727B2, “Histone deacetylase inhibitor of benzamides and use thereof” (Shanghai Institute of Pharmaceutical Industry, priority 2011, dated 2015)
Read-outs that look alike come from different tables or passages of the source.

Columns and labels:
HDAC1 = HDAC1 (Homo sapiens (Human), UniProt Q13547); test: In vitro inhibitory activity towards HDAC1 (HDAC Inhibitor Drug Screening Kit); assay type: biochemical; settings: for inhibition at 1 µM: compound at 1 μM; for inhibition at 10 µM: compound at 10 μM; for inhibitory activity against HDAC1 compared with MS-275 (by IC50): comparison with MS-275
Method: (1) The compounds to be tested were each individually prepared as 10 μM and 1 μM solutions and their inhibitory activities towards HDAC1 at these concentrations were tested.
(§1) Each dilution sample was placed in two wells and the enzyme inhibition IC50 of the compound was tested.

[1] = Preliminary pharmacokinetic experiment; settings: in vivo, rat
hERG potassium channel = hERG potassium channel (Homo sapiens (Human), UniProt Q12809); test: Effects on hERG potassium channel; assay type: cell-based
[2] = system: Colo320 human rectal cancer cell line; test: In vitro anti-proliferative effect, CCK-8 method; assay type: cell-based
Method: (§2) The inhibitory activities of the compounds towards Hut78 T lymphocytic leukemia cells, Jurkat E6-1 human T-cell lymphoma, A549 human lung cancer cells, K562 human chronic myelogenous leukemia cells, Hep3B2.1-7 human liver cancer cells, MDA-MB-435s human breast cancer cells, Colo320 human rectal cancer cell line, and PC-3 human prostate cancer were determined. The inhibition percentages as represented by IC50 values were obtained through CCK-8 method.

[3] = system: PC-3 human prostate cancer; test: In vitro anti-proliferative effect, CCK-8 method; assay type: cell-based
Method: as §2

[4] = system: K562 human chronic myelogenous leukemia cells; test: In vitro anti-proliferative effect, CCK-8 method; assay type: cell-based
Method: as §2

[5] = system: Hut78 T lymphocytic leukemia cells; test: In vitro anti-proliferative effect, CCK-8 method; assay type: cell-based
Method: as §2

[6] = system: A549 human lung cancer cells; test: In vitro anti-proliferative effect, CCK-8 method; assay type: cell-based
Method: as §2

[7] = system: Hep3B2.1-7 human liver cancer cells; test: In vitro anti-proliferative effect, CCK-8 method; assay type: cell-based; settings: Hep3B
Method: as §2

[8] = system: Jurkat E6-1 human T-cell lymphoma; test: In vitro anti-proliferative effect, CCK-8 method; assay type: cell-based
Method: as §2

HDACs = test: In vitro inhibition of HDACs (HDAC Inhibitor Drug Screening Kit); assay type: biochemical; settings: for inhibitory activity on HDACs compared with MS-275 (by IC50): comparison with MS-275
Method: The test was conducted according to the instructions in the HDAC Inhibitor Drug Screening Kit (Biovision/Catalog #50051, BPS).
as §1

[9] = system: multiple strains of tumor cells; test: In vitro inhibition of proliferation of tumor cell strains (overall comparison); assay type: cell-based; settings: comparison with MS-275
Method: as §2

[10] = system: MDA-MB-435s human breast cancer cells; test: In vitro anti-proliferative effect, CCK-8 method; assay type: cell-based
Method: as §2

Sequence of HDAC1 (Q13547 whole entry): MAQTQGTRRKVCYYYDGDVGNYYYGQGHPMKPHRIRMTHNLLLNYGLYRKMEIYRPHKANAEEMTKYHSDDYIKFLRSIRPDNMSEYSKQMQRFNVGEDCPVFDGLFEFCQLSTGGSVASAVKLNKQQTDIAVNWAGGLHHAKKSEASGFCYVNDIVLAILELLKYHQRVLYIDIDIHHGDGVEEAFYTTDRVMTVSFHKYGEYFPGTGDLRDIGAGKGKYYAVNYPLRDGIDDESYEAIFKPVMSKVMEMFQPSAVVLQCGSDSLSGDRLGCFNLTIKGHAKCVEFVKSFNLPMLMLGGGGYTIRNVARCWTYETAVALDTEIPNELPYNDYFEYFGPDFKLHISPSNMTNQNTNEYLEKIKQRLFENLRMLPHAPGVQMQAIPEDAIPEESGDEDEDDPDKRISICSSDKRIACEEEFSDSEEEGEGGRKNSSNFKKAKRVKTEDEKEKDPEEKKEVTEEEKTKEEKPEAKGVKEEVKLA
Sequence of hERG potassium channel (Q12809 whole entry): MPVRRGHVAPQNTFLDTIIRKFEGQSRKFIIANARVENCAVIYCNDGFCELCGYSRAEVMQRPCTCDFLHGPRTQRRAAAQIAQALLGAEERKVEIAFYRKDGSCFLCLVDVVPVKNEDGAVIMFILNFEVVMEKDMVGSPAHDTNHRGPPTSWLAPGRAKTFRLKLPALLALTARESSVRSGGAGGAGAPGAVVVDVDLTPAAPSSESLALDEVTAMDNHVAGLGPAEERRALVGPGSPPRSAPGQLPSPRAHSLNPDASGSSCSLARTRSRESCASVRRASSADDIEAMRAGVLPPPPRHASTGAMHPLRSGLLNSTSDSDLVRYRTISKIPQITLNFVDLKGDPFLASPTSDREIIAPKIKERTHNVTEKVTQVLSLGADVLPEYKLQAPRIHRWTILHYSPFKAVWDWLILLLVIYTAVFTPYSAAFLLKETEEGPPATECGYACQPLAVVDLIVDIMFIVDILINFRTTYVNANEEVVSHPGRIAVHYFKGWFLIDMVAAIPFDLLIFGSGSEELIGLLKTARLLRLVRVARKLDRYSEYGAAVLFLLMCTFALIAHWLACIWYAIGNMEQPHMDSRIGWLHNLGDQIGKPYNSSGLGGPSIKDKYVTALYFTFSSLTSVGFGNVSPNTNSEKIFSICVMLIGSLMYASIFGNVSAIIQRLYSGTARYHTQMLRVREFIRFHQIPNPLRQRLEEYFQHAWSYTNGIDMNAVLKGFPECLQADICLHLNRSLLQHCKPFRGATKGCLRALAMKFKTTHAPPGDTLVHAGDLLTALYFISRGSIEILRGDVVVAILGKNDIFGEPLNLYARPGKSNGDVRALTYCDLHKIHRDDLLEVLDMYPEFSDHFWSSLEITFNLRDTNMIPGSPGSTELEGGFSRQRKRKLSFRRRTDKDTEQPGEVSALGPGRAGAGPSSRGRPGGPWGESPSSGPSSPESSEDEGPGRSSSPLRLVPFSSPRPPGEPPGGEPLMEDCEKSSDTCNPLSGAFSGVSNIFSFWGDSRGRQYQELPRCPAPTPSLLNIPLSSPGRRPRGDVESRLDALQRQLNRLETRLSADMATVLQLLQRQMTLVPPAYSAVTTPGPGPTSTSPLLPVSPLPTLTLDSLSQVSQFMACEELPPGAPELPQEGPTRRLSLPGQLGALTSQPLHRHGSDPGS

Row | Compound | inhibition at 1 µM (HDAC1) [%] | inhibition at 10 µM (HDAC1) [%] | IC50 ([5]; Homo sapiens, HuT78) [µM] | IC50 (HDACs) [µM] | IC50 (HDAC1) [µM] | inhibitory activity against HDAC1 compared with MS-275 (by IC50) (HDAC1) | also measured
1 | Nc1ccccc1NC(=O)c1ccc(CNC(=O)c2ccc3ccccc3c2)cc1 [Compound V-1] | 4.49 | 15.2 |  |  |  |  | 
2 | Nc1ccc(F)cc1NC(=O)c1ccc(CNC(=O)c2ccc3ccccc3c2)cc1 [Compound V-2] | 28.8 | 46.9 |  |  |  |  | 
3 | COc1ccc2cc(C(=O)NCc3ccc(C(=O)Nc4ccccc4N)cc3)ccc2c1 [Compound V-3] | 33.3 | 60 |  |  |  |  | 
4 | COc1ccc2cc(C(=O)NCc3ccc(C(=O)Nc4cc(F)ccc4N)cc3)ccc2c1 [Compound V-4] | 24.7 | 44.8 |  |  |  |  | 
5 | Nc1ccccc1NC(=O)c1ccc(CNC(=O)c2cc3ccccc3o2)cc1 [Compound V-8] | 62.2 | 79.5 |  |  |  |  | 
6 | Nc1ccc(-c2cccs2)cc1NC(=O)c1ccc(CNC(=O)c2cc3ccccc3o2)cc1 [Compound V-10] | 58.9 | 75.4 |  |  |  |  | 
7 | Nc1ccc(-c2ccccc2)cc1NC(=O)c1ccc(CNC(=O)c2cc3ccccc3o2)cc1 [Compound V-11] | 38.1 | 58.5 |  |  |  |  | 
8 | Nc1ccc(F)cc1NC(=O)c1ccc(CNC(=O)c2nc3ccccc3[nH]2)cc1 [Compound V-13] | 13.4 | 23.9 |  |  |  |  | 
9 | Nc1ccc(-c2ccco2)cc1NC(=O)c1ccc(CNC(=O)c2nc3ccccc3[nH]2)cc1 [Compound V-14] | 74.8 | 87.2 | 0.356 |  |  | better inhibitory activities against HDAC1 as compared with MS-275 | IC50 [4]: 0.437 µM; IC50 ([6]; Homo sapiens): 3.14 µM; IC50 ([7]; Homo sapiens): 1.52 µM; IC50 ([8]; Homo sapiens): 0.458 µM
10 | Nc1ccccc1NC(=O)c1ccc(CNC(=O)c2cccc3ccccc23)cc1 [Compound V-15] | 29.8 | 67.5 | 2.78 |  |  | better inhibitory activities against HDAC1 as compared with MS-275 | inhibitory activity on HDACs compared with MS-275 (by IC50) (HDACs): better inhibitory activities than MS-275; IC50 ([2]; Homo sapiens, COLO 320): 9.34 µM; IC50 ([3]; Homo sapiens): 2.63 µM; IC50 [4]: 2.88 µM; IC50 ([7]; Homo sapiens): 2.76 µM; IC50 ([8]; Homo sapiens): 1.37 µM
11 | Nc1cnccc1NC(=O)c1ccc(CNC(=O)c2cccc3ccccc23)cc1 [Compound V-16] | 62.5 | 85.1 | 1.79 | 3.11 | 0.276 | better inhibitory activities against HDAC1 as compared with MS-275 | inhibitory activity on HDACs compared with MS-275 (by IC50) (HDACs): better inhibitory activities than MS-275; IC50 ([2]; Homo sapiens, COLO 320): 86 µM; IC50 [4]: 6.08 µM; IC50 ([7]; Homo sapiens): 3.36 µM
12 | Nc1ccc(F)cc1NC(=O)c1ccc(CNC(=O)c2cccc3ccccc23)cc1 [Compound V-17] | 54 | 76.2 |  | 0.92 | 0.735 |  | inhibitory activity on HDACs compared with MS-275 (by IC50) (HDACs): better inhibitory activities than MS-275
13 | COc1c(C(=O)NCc2ccc(C(=O)Nc3ccccc3N)cc2)oc2ccccc12 [Compound V-21] | 34.4 | 68.8 |  | 9.4 | 0.758 |  | 
14 | Nc1ccccc1NC(=O)c1ccc(CNC(=O)c2cc3ccccc3s2)cc1 [Compound V-24] | 59.1 | 67.4 |  | 1.72 | 1.58 |  | inhibitory activity on HDACs compared with MS-275 (by IC50) (HDACs): better inhibitory activities than MS-275
15 | Nc1ccc(F)cc1NC(=O)c1ccc(CNC(=O)c2cc3ccccc3s2)cc1 [Compound V-27] | 47.6 | 80.2 | 0.0558 | 1.22 | 0.276 | better inhibitory activities against HDAC1 as compared with MS-275 | inhibition rate for tumor cells compared with MS-275 [9]: higher inhibition rate for multiple strains of tumor cells as compared with MS-275; IC50 ([2]; Homo sapiens, COLO 320): 27 µM; IC50 ([3]; Homo sapiens): 3.57 µM; IC50 [4]: 2.81 µM; IC50 ([6]; Homo sapiens): 5.09 µM; IC50 ([7]; Homo sapiens): 16 µM; IC50 ([8]; Homo sapiens): 1.39 µM
16 | Nc1cnccc1NC(=O)c1ccc(CNC(=O)c2cc3ccccc3s2)cc1 [Compound V-28] | 53.5 | 77.4 |  | 1.31 | 0.731 |  | 
17 | Nc1ccccc1NC(=O)c1ccc(CNC(=O)OCc2cccnc2)cc1 [MS-275, reference compound] |  |  |  | 3.52 |  |  | IC50 [2]: 0.522 µM; IC50 [3]: 0.502 µM; IC50 ([5]; Hut78): 0.528 µM; IC50 [6]: 2.28 µM; IC50 [7]: 6.82 µM; IC50 [8]: 0.561 µM; IC50 [10]: 2.71 µM

More lines, main results first:

Row | inhibition at 1 µM (HDAC1) [%] | inhibition at 10 µM (HDAC1) [%] | IC50 ([5]; Homo sapiens, HuT78) [µM] | IC50 (HDACs) [µM] | IC50 (HDAC1) [µM] | Compound | inhibitory activity against HDAC1 compared with MS-275 (by IC50) (HDAC1) | also measured
18 | 59.6 | 81.1 | 0.0194 |  |  | Nc1ccccc1NC(=O)c1ccc(CNC(=O)c2cc3ccccc3[nH]2)cc1 [Compound V-5] | better inhibitory activities against HDAC1 as compared with MS-275 | half-life ([1]; iv, 2 mg/kg, i.v., read-out: Intravenous half-life (converted)): 1.27 h; bioavailability ([1]; oral): 7.84%; half-life ([1]; oral, read-out: Oral half-life (converted)): 3.7 h; inhibition at 10 µM (hERG potassium channel; human, hERG potassium current, 10 μM, read-out: Maximum inhibition percentage at 10 μM): 11.5 ± 0.8%; IC50 (hERG potassium channel; read-out: Half inhibition concentration for the effect on hERG potassium current IC50): > 10 µM; IC50 ([2]; Homo sapiens, COLO 320): 2.45 µM; IC50 ([3]; Homo sapiens): 0.242 µM; IC50 [4]: 1.31 µM; IC50 ([6]; Homo sapiens): 2.64 µM; IC50 ([7]; Homo sapiens): 3.46 µM; IC50 ([8]; Homo sapiens): 0.179 µM
19 | 68.5 | 74.5 | 0.0088 | 7.79 | 0.344 | Nc1cnccc1NC(=O)c1ccc(CNC(=O)c2cc3ccccc3[nH]2)cc1 [Compound V-6] | better inhibitory activities against HDAC1 as compared with MS-275 | inhibition rate for tumor cells compared with MS-275 [9]: higher inhibition rate for multiple strains of tumor cells as compared with MS-275; IC50 ([2]; Homo sapiens, COLO 320): 3.13 µM; IC50 ([3]; Homo sapiens): 0.37 µM; IC50 [4]: 2.09 µM; IC50 ([6]; Homo sapiens): 1.25 µM; IC50 ([7]; Homo sapiens): 3.07 µM; IC50 ([8]; Homo sapiens): 0.128 µM
20 | 41.4 | 53.3 |  |  |  | Nc1ccc(F)cc1NC(=O)c1ccc(CNC(=O)c2cc3ccccc3[nH]2)cc1 [Compound V-7] |  | 
21 | 8.7 | 28.4 |  |  |  | Nc1ccccc1NC(=O)c1ccc(CNC(=O)c2nc3ccccc3[nH]2)cc1 [Compound V-12] |  | 
22 | 22.1 | 49.5 |  |  |  | Nc1ccccc1NC(=O)c1ccc(CNC(=O)c2cc3cc(F)ccc3[nH]2)cc1 [Compound V-18] |  | 
23 | 73.1 | 84 | 1.19 | 1.14 | 0.414 | Cc1ccc2[nH]c(C(=O)NCc3ccc(C(=O)Nc4ccccc4N)cc3)cc2c1 [Compound V-19] | better inhibitory activities against HDAC1 as compared with MS-275 | inhibitory activity on HDACs compared with MS-275 (by IC50) (HDACs): better inhibitory activities than MS-275; inhibition rate for tumor cells compared with MS-275 [9]: higher inhibition rate for multiple strains of tumor cells as compared with MS-275; IC50 ([3]; Homo sapiens): 0.191 µM; IC50 [4]: 1.91 µM; IC50 ([7]; Homo sapiens): 10.2 µM
24 | 39.4 | 72.2 |  |  |  | Nc1ccccc1NC(=O)c1ccc(CNC(=O)c2cc3cc(C(F)(F)F)ccc3[nH]2)cc1 [Compound V-20] |  | 
25 | 36.8 | 59.5 |  |  |  | CNc1ccc2[nH]c(C(=O)NCc3ccc(C(=O)Nc4ccccc4N)cc3)cc2c1 [Compound V-22] |  | 
26 | 67.1 | 78.8 |  | 6.89 | 0.998 | Nc1ccc2[nH]c(C(=O)NCc3ccc(C(=O)Nc4ccccc4N)cc3)cc2c1 [Compound V-23] |  | 
27 | 53.9 | 76.2 | 0.877 | 1.02 | 0.301 | CC(=O)Nc1ccc2[nH]c(C(=O)NCc3ccc(C(=O)Nc4ccccc4N)cc3)cc2c1 [Compound V-25] | better inhibitory activities against HDAC1 as compared with MS-275 | inhibition rate for tumor cells compared with MS-275 [9]: higher inhibition rate for multiple strains of tumor cells as compared with MS-275; IC50 ([3]; Homo sapiens): 0.069 µM; IC50 ([6]; Homo sapiens): 0.295 µM
28 | 59.3 | 70.8 | 0.231 | 1.37 | 0.509 | CC(=O)c1ccc2[nH]c(C(=O)NCc3ccc(C(=O)Nc4ccccc4N)cc3)cc2c1 [Compound V-26] | better inhibitory activities against HDAC1 as compared with MS-275 | IC50 ([2]; Homo sapiens, COLO 320): 88.4 µM; IC50 ([3]; Homo sapiens): 12.2 µM; IC50 [4]: 19.9 µM; IC50 ([6]; Homo sapiens): 29.9 µM; IC50 ([7]; Homo sapiens): 52.2 µM; IC50 ([8]; Homo sapiens): 12.4 µM
